According to the supplement of paper PMC10307832:

Legend:
Experiment in all cases: relative viability (nuclei count vs DMSO), 5 days (fraction); higher = more cells survive
[1] = compound: C=CC(=O)N1CCC[C@@H](n2nc(-c3ccc(Oc4ccccc4)cc3)c3c(N)ncnc32)C1 [Ibrutinib] + CC1(C)CCC(c2ccc(Cl)cc2)=C(CN2CCN(c3ccc(C(=O)NS(=O)(=O)c4ccc(N[C@H](CCN5CCOCC5)CSc5ccccc5)c(S(=O)(=O)C(F)(F)F)c4)cc3)CC2)C1 [Navitoclax] (partner 0.5 µM)
Outline: (§1)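 Relative viability was taken as the ratio of nuclei in treated wells to nuclei in vehicle wells. Lung cancer cell lines in 1536-well plates received compounds by pin tool one day after seeding, either one drug alone or a fixed anchor-drug dose plus five library-drug doses (not always all listed) in √10 steps. Nuclei were counted on 4× images after 5 days of treatment, and values are medians of duplicate plates.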

[2] = compound: C=CC(=O)N1CCC[C@@H](n2nc(-c3ccc(Oc4ccccc4)cc3)c3c(N)ncnc32)C1 [Ibrutinib] + Cc1nc(NC(=O)N2CCC[C@H]2C(N)=O)sc1-c1ccnc(C(C)(C)C(F)(F)F)c1 [Alpelisib] (partner 2 µM)
Outline: as §1

[3] = compound: C=CC(=O)Nc1cc(-n2c(=O)ccc3cnc4ccc(-c5ccc(NS(C)(=O)=O)cc5)cc4c32)ccc1C [BMX-IN-1] + O=C(CCCCCCC(=O)Nc1ccccc1)NO [Vorinostat] (partner 1 µM)
Outline: as §1

[4] = compound: C=CC(=O)Nc1cc(-n2c(=O)ccc3cnc4ccc(-c5ccc(NS(C)(=O)=O)cc5)cc4c32)ccc1C [BMX-IN-1] + O=C(c1cc(Cc2n[nH]c(=O)c3ccccc23)ccc1F)N1CCN(C(=O)C2CC2)CC1 [Olaparib] (partner 8 µM)
Outline: as §1

Cell Line: NCI-H1651
- relative viability ([1]; first compound 0.005 µM): 0.853
- relative viability ([1]; first compound 0.01581 µM): 1.03
- relative viability ([1]; first compound 0.05 µM): 1.12
- relative viability ([1]; first compound 0.1581 µM): 1
- relative viability ([1]; first compound 0.5 µM): 0.837
- relative viability ([2]; first compound 0.005 µM): 0.903
- relative viability ([2]; first compound 0.01581 µM): 0.938
- relative viability ([2]; first compound 0.05 µM): 0.995
- relative viability ([2]; first compound 0.1581 µM): 0.935
- relative viability ([2]; first compound 0.5 µM): 1.1
- relative viability ([3]; first compound 0.02 µM): 0.481
- relative viability ([3]; first compound 0.2 µM): 0.585
- relative viability ([3]; first compound 0.6325 µM): 0.604
- relative viability ([3]; first compound 2 µM): 0.552
- relative viability ([4]; first compound 0.02 µM): 0.175
- relative viability ([4]; first compound 0.2 µM): 0.182
- relative viability ([4]; first compound 0.6325 µM): 0.18
- relative viability ([4]; first compound 2 µM): 0.183

Cell Line: PC-3 [JPC-3]
- relative viability ([1]; first compound 0.005 µM): 0.82
- relative viability ([1]; first compound 0.01581 µM): 0.805
- relative viability ([1]; first compound 0.05 µM): 0.598
- relative viability ([1]; first compound 0.1581 µM): 0.824
- relative viability ([1]; first compound 0.5 µM): 0.488
- relative viability ([2]; first compound 0.005 µM): 1.03
- relative viability ([2]; first compound 0.01581 µM): 0.946
- relative viability ([2]; first compound 0.05 µM): 0.941
- relative viability ([2]; first compound 0.1581 µM): 1.04
- relative viability ([2]; first compound 0.5 µM): 0.517
- relative viability ([3]; first compound 0.02 µM): 0.953
- relative viability ([3]; first compound 0.2 µM): 0.831
- relative viability ([3]; first compound 0.6325 µM): 0.916
- relative viability ([3]; first compound 2 µM): 0.766
- relative viability ([4]; first compound 0.02 µM): 1.25
- relative viability ([4]; first compound 0.2 µM): 1.46
- relative viability ([4]; first compound 0.6325 µM): 1.06
- relative viability ([4]; first compound 2 µM): 1.1

Cell Line: NCI-H596
- relative viability ([1]; first compound 0.005 µM): 0.924
- relative viability ([1]; first compound 0.01581 µM): 0.867
- relative viability ([1]; first compound 0.05 µM): 0.852
- relative viability ([1]; first compound 0.1581 µM): 0.962
- relative viability ([1]; first compound 0.5 µM): 0.681
- relative viability ([2]; first compound 0.005 µM): 0.482
- relative viability ([2]; first compound 0.01581 µM): 0.503
- relative viability ([2]; first compound 0.05 µM): 0.51
- relative viability ([2]; first compound 0.1581 µM): 0.503
- relative viability ([2]; first compound 0.5 µM): 0.479
- relative viability ([3]; first compound 0.02 µM): 0.685
- relative viability ([3]; first compound 0.2 µM): 0.84
- relative viability ([3]; first compound 0.6325 µM): 0.67
- relative viability ([3]; first compound 2 µM): 0.666
- relative viability ([4]; first compound 0.02 µM): 0.712
- relative viability ([4]; first compound 0.2 µM): 0.641
- relative viability ([4]; first compound 0.6325 µM): 0.692
- relative viability ([4]; first compound 2 µM): 0.755

Cell Line: NCI-H838
- relative viability ([1]; first compound 0.005 µM): 1.18
- relative viability ([1]; first compound 0.01581 µM): 1.12
- relative viability ([1]; first compound 0.05 µM): 1.23
- relative viability ([1]; first compound 0.1581 µM): 1.17
- relative viability ([1]; first compound 0.5 µM): 1.21
- relative viability ([2]; first compound 0.005 µM): 0.836
- relative viability ([2]; first compound 0.01581 µM): 1
- relative viability ([2]; first compound 0.05 µM): 1.14
- relative viability ([2]; first compound 0.1581 µM): 1.01
- relative viability ([2]; first compound 0.5 µM): 0.987
- relative viability ([3]; first compound 0.02 µM): 0.827
- relative viability ([3]; first compound 0.2 µM): 0.64
- relative viability ([3]; first compound 0.6325 µM): 0.728
- relative viability ([3]; first compound 2 µM): 0.73
- relative viability ([4]; first compound 0.02 µM): 0.81
- relative viability ([4]; first compound 0.2 µM): 0.933
- relative viability ([4]; first compound 0.6325 µM): 0.915
- relative viability ([4]; first compound 2 µM): 0.859

Cell Line: NCI-H647
- relative viability ([1]; first compound 0.005 µM): 1.09
- relative viability ([1]; first compound 0.01581 µM): 1.13
- relative viability ([1]; first compound 0.05 µM): 1.22
- relative viability ([1]; first compound 0.1581 µM): 1.05
- relative viability ([1]; first compound 0.5 µM): 1.1
- relative viability ([2]; first compound 0.005 µM): 1.15
- relative viability ([2]; first compound 0.01581 µM): 1.01
- relative viability ([2]; first compound 0.05 µM): 1.14
- relative viability ([2]; first compound 0.1581 µM): 1.45
- relative viability ([2]; first compound 0.5 µM): 1.21
- relative viability ([3]; first compound 0.02 µM): 0.709
- relative viability ([3]; first compound 0.2 µM): 0.725
- relative viability ([3]; first compound 0.6325 µM): 0.663
- relative viability ([3]; first compound 2 µM): 0.495
- relative viability ([4]; first compound 0.02 µM): 0.687
- relative viability ([4]; first compound 0.2 µM): 1.04
- relative viability ([4]; first compound 0.6325 µM): 0.553
- relative viability ([4]; first compound 2 µM): 0.574

Cell Line: HCC-366
- relative viability ([1]; first compound 0.005 µM): 0.986
- relative viability ([1]; first compound 0.01581 µM): 0.977
- relative viability ([1]; first compound 0.05 µM): 1.06
- relative viability ([2]; first compound 0.005 µM): 0.459
- relative viability ([2]; first compound 0.01581 µM): 0.496
- relative viability ([2]; first compound 0.05 µM): 0.372
- relative viability ([2]; first compound 0.1581 µM): 0.414
- relative viability ([2]; first compound 0.5 µM): 0.466
- relative viability ([3]; first compound 0.02 µM): 0.791
- relative viability ([3]; first compound 0.2 µM): 0.342
- relative viability ([3]; first compound 0.6325 µM): 0.373
- relative viability ([3]; first compound 2 µM): 0.33
- relative viability ([4]; first compound 0.02 µM): 0.416
- relative viability ([4]; first compound 0.2 µM): 0.406
- relative viability ([4]; first compound 0.6325 µM): 0.442
- relative viability ([4]; first compound 2 µM): 0.361
